Columns and labels:
[1] = system: luciferase-expressing human B lymphoma cells (GMB); assay: Human B lymphoma (GMB-luc) model in NSG mice; format: in vivo, mouse
Description: NSG mice were grafted with 1×10^7 GMB-luc cells and dosed twice at 14 and 21 days later with 0.5 mg/kg Rituximab (Ritu) and/or 300 mg/kg thiostrepton (Thio). Tumor burden was monitored (FIG. 18A) and quantified (FIG. 18B) by imaging the luciferase activity in vivo (n=5˜6 mice per group). Data are shown as mean±s.e.m. At day 28 post tumor engraftment, bone marrow cells were analyzed by flow cytometry (FIG. 18C). Shown are representative F4/80 versus CD11b staining profiles gating on CD45^+ cells (top panel), Ly6C versus Ly6G staining profiles gating on F4/80^+CD11b^+ cells (bottom panel). MHCII histograms gating on macrophages from FIG. 18C. […] Data shown are mean±s.d. * P<0.05, ** P<0.01 and *** P<0.001, by T-test.
For the melanoma model, an inoculum of 1×10^6 B16F10 tumor cells was injected subcutaneously on the flank of 8- to 10-week-old male B6 mice in […] sterile PBS. Six days following tumor inoculation, mice were randomized into 4 treatment groups including control (PBS or DMSO), tumor-targeting antibody TA99, compound, compound plus TA99. TA99 was administered at […] per dose intraperitoneally (I.P.). The compound was administrated at the indicated dosage by either I.P. or paratumor injection subcutaneously (S.C.). All mice were dosed at day 6 and day 12 post tumor inoculation for a total of 2 treatments. Tumor size was measured as an area (longest dimension×perpendicular dimension) at day 6, day 12 and day 18 post tumor inoculation. Mice were euthanized for analysis at day 18 post tumor inoculation. For the lymphoma model, 1×10^7 GMB cells were injected through tail intravenously in 100 μL sterile PBS into 10- to 12-week-old male NSG mice. Mice were treated two weeks post tumor cell engraftment. Tumor-targeting antibody Rituxumab (InvivoGen) was administered at 10 mg/kg intraperitoneally. The compound was administrated I.P. at the indicated dosage. All mice were dosed at week 2 and week 3 post tumor injection for a total of 2 treatments. […]

[2] = system: bone marrow derived macrophages (BMDMs); assay: Seahorse ECAR (glycolysis) in BMDMs; format: cell-based, mouse; conditions: Pkm−/− BMDMs, 50 nM
Description: FIGS. 21A-21I show DPI stimulates glycolysis through GPR3 and β-arrestin2. FIGS. 21A-21B show DPI-stimulated glycolysis is independent of the NOX activity. […] The mean fluorescence intensity (MFI) of 2-NBDG in cells was measured by flow cytometry and normalized to DMSO controls of wildtype BMDMs. Data are presented as the mean±sd (n=3). […] ImKCs were transfected with siRNA specific for Gpr3 or a scramble siRNA as control. […] Data are presented as the mean±sd (n=4). […] Data are presented as the mean±sd (n=12). […] Abbr2^−/− ImKC were constructed by CRISPR-Cas9-mediated gene editing. […] Data are presented as the mean±sd (n=4). […]
Specific parameters for glycolytic capacity and glycolytic reserve were calculated and summarized based on two independent experiments. […]
FIGS. 29A-29B show comparison of DPI's effect on glycolysis in wild-type and Pkm^−/− BMDMs. […] ImKCs were treated with DMSO or DPI alone (500 nM) or DPI plus ERK1/2 inhibitor (SCH772984, […]) for 6 hrs and the enzymatic activities of PKM2 (c) and GAPDH (d) were measured by colorimetric assay kits (Biovision). […]
OCR and ECAR were measured in isolated tissues or cultured ImKCs using the Seahorse XFe Extracellular Flux Analyzer (Agilent). […] Glucose levels were determined using a glucose (GO) assay kit (Sigma). […] Lactate levels were determined using a lactate assay kit (Eton Bioscience). […]

[3] = system: BMDMs (wild-type and Pkm−/−); conditions: dose-dependent
Description: WT and Pkm^−/− BMDMs were not treated or treated with DPI (50 and 500 nM) for 24 hrs. The transcript levels of Pkm, Ldha, Hk2 and c-Myc were measured by real-time qPCR. Data were collected from two independent experiments with 3 biological replicates per group. Transcriptional level was normalized to β-actin first and then to DMSO control. Data are presented as the mean±sd. […] Transfected cells were not treated or treated with DPI (50 and 500 nM) for 6 hrs and luciferase activities were measured. Data are presented as the mean±sd (n=5). P values were calculated by student t-test. * P<0.05, ** P<0.01, *** P<0.001, **** P<0.0001.
To test this mechanism, we first determined if PKM2 is required for DPI-induced transcription of glycolytic genes. BMDMs were prepared from wild-type and Pkm^−/− mice, incubated with or without 50 and 500 nM DPI for 24 hours, and the transcript levels of key glycolytic genes were quantified by RT-PCR.
We also determined if c-Myc is induced by DPI in a PKM2-dependent manner. […] To determine whether DPI activates c-Myc transcriptional activity, we performed c-Myc luciferase reporter assays in the parental ImKCs and Pkm^−/− ImKCs.

In the case of `C=C(NC(=O)C(=C)NC(=O)c1csc(C2=N[C@@H]3c4csc(n4)[C@H]4NC(=O)c5csc(n5)[C@H]([C@](C)(O)[C@@H](C)O)NC(=O)[C@H]5CSC(=N5)/C(=C/C)NC(=O)[C@H]([C@@H](C)O)NC(=O)c5csc(n5)[C@]3(CC2)NC(=O)[C@H](C)NC(=O)C(=C)NC(=O)[C@H](C)NC(=O)[C@H]([C@@H](C)CC)N[C@@H]2C=Cc3c([C@H](C)O)cc(nc3[C@H]2O)C(=O)O[C@@H]4C)n1)C(N)=O` [Thiostrepton], the “tumor burden in the bone marrow” value ([1]; alone, 300 mg/kg, luciferase imaging) is reported as “significantly reduced”, the “tumor burden in the bone marrow, with rituximab” value ([1]; together with rituximab, luciferase imaging) is reported as “significantly reduced” and the “F4/80+CD11b+ macrophages with higher MHCII in bone marrow” value ([1]; vs vehicle or rituximab) is reported as “higher percentages”.
For `c1ccc2c(c1)[I+]c1ccccc1-2` [Diphenyleneiodonium chloride], the “glycolysis, glycolytic capacity and glucose consumption” value [2] was “did not stimulate any increase” and the “transcription of c-Myc” value [3] was “stimulated the transcription”.

— patent US20250262167A1, “COMPOUNDS, TARGETS AND PATHWAYS FOR MACROPHAGE MODULATION” (Massachusetts Institute of Technology, priority 2020, published 2025)
